The source of these data is US20250197368A1 (priority 2020, published 2025).

As usually defined, the Ki is the dissociation constant of the complex between target and ligand, obtained from inhibition or displacement.

In one assay the test system is human α2β3γ2 GABAARs. Nature of the assay: In vitro electrophysiological recording assay (automated patch-clamp), α2-GABAAR relative efficacy. The assay is classed as cell-based. The following applies: % efficacy normalised to diazepam; GABA EC10-20; concentration generally >= 100 times Ki. A digest of the protocol: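 Relative efficacy is % enhancement of the leak-subtracted GABA EC10-20 peak current, divided by the separately measured diazepam value; compound generally tested at ≥100× Ki after ≥1 min pre-application. Recordings at room temperature, human receptors stably expressed in L(tk^−) (QPatch, −65 mV) or HEK293 (SyncroPatch, −80 mV) cells.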
(In general: In patch-clamp work, channel activity is measured electrically.)

Assay [1] addresses human α2β3γ2 GABAARs (benzodiazepine site) (Homo sapiens (Human), UniProt P18507+P47869). Nature of the assay: In vitro radioligand binding assay ([3H]Ro15-1788 displacement), α2-GABAAR Ki. A digest of the protocol: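 Ki derived via Cheng-Prusoff from IC50 for displacement of 4 nM [3H]Ro15-1788 (Kd from saturation binding), with 1-3 μM TP003 defining nonspecific binding. Incubation lasted 1 h at 4° C on membranes of induced L(tk−) cells stably transfected with the human subunits; detection by filtration and scintillation counting.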

The structures appear in SMILES notation. Structures can show the parent of a compound that is named as a salt.

human α2β3γ2 GABAARs (benzodiazepine site), sequence (P47869 29-451): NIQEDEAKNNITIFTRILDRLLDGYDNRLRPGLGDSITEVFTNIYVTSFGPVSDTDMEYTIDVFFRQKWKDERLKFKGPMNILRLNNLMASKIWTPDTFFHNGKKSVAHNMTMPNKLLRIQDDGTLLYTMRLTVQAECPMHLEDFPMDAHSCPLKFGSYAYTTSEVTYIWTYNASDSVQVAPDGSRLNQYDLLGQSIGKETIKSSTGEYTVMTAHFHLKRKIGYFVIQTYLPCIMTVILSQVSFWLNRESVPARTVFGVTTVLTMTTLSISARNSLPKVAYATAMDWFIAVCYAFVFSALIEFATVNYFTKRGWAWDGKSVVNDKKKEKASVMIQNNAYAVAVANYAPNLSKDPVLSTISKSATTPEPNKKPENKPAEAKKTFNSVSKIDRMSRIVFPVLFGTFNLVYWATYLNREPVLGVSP
human α2β3γ2 GABAARs (benzodiazepine site), sequence (P28472 26-473 partner): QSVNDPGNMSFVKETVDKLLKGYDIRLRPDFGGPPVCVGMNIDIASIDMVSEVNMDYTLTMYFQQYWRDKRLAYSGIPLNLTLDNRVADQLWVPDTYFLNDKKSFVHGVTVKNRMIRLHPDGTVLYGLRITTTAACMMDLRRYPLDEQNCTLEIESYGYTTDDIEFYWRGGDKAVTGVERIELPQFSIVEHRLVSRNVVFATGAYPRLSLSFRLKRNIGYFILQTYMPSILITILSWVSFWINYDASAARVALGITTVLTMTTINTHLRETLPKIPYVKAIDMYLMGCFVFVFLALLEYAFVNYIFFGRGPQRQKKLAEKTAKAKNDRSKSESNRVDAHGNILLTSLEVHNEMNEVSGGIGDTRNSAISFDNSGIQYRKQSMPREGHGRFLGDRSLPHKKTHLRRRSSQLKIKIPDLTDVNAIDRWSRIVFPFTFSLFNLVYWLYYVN
human α2β3γ2 GABAARs (benzodiazepine site), sequence (P18507 40-475): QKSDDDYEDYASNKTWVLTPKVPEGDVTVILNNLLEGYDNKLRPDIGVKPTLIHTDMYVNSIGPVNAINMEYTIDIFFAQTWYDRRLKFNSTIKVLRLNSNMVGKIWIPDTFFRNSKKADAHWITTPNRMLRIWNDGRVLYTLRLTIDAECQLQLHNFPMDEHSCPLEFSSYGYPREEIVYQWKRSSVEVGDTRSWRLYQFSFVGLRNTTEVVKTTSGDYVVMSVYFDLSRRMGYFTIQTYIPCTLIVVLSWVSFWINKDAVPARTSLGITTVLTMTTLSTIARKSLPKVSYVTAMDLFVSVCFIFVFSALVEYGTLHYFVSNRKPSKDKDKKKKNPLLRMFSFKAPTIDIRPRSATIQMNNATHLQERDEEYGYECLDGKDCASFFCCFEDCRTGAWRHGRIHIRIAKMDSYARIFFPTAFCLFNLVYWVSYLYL

`CCCNC(=O)c1c(N)c2cccc(-c3cncc(C)n3)c2[nH]c1=O` [Example 46, 4-Amino-8-(6-methylpyrazin-2-yl)-2-oxo-N-propyl-1,2-dihydroquinoline-3-carboxamide]: the “α2-GABAAR Relative Efficacy (vs. Diazepam)” value (from here on “α2-GABAAR Relative Efficacy”) in the assay on human α2β3γ2 GABAARs worked out at 0.02. Further, the Ki in assay [1] worked out at 2.37 nM.
Turning to `CCCNC(=O)c1c(N)c2cccc(-c3cc(OCc4ccc5[nH]cnc5c4)ccc3F)c2[nH]c1=O` [Example 133, 8-(5-((1H-Benzo[d]imidazol-5-yl)methoxy)-2-fluorophenyl)-4-amino-2-oxo-N-propyl-1,2-dihydroquinoline-3-carboxamide], the “α2-GABAAR Relative Efficacy” value with human α2β3γ2 GABAARs worked out at 0.23. In addition, the Ki in assay [1] came to 1.29 nM.
`CCCNC(=O)c1c(N)c2cccc(-c3cccc(OC(F)(F)F)n3)c2[nH]c1=O` [Example 1, 4-Amino-2-oxo-N-propyl-8-[6-(trifluoromethoxy)-2-pyridyl]-1H-quinoline-3-carboxamide]: the “α2-GABAAR Relative Efficacy” value with human α2β3γ2 GABAARs amounted to 0.13. In assay [1], the Ki stood at 0.79 nM.
As to `CCCNC(=O)c1c(N)c2cccc(-c3ccc(CO)nc3)c2[nH]c1=O` [Example 30, 4-Amino-8-[6-(hydroxymethyl)-3-pyridyl]-2-oxo-N-propyl-1H-quinoline-3-carboxamide], in the assay on human α2β3γ2 GABAARs, the “α2-GABAAR Relative Efficacy” value came to 0.43. The Ki in assay [1] is 4.76 nM.
Turning to `CCCNC(=O)c1c(N)c2cccc(-c3cc(OCc4cc(OC)ccn4)ccc3F)c2[nH]c1=O` [Example 100, 4-Amino-8-[2-fluoro-5-[(4-methoxy-2-pyridyl)methoxy]phenyl]-2-oxo-N-propyl-1H-quinoline-3-carboxamide], the “α2-GABAAR Relative Efficacy” value in the assay on human α2β3γ2 GABAARs is given as 0.18. In assay [1], the Ki came out at 0.07 nM.
Take `CCCNC(=O)c1c(N)c2cccc(-c3cc(OCc4cc(CO)ccn4)ccc3F)c2[nH]c1=O` [Example 102, 4-Amino-8-(2-fluoro-5-((4-(hydroxymethyl)pyridin-2-yl)methoxy)phenyl)-2-oxo-N-propyl-1,2-dihydroquinoline-3-carboxamide]: the “α2-GABAAR Relative Efficacy” value in the assay with human α2β3γ2 GABAARs was 0.33. Also, the Ki in assay [1] turned out to be 0.7 nM.
Turning to `CCCNC(=O)c1c(N)c2cccc(-c3cc(C)ncc3F)c2[nH]c1=O` [Example 33, 4-Amino-8-(5-fluoro-2-methyl-4-pyridyl)-2-oxo-N-propyl-1H-quinoline-3-carboxamide], the “α2-GABAAR Relative Efficacy” value in the assay on human α2β3γ2 GABAARs is given as 0.39. Besides, the Ki in assay [1] is 0.67 nM.
For the molecule `CCCNC(=O)c1c(N)c2cccc(-c3cc(COc4ccc(C)nc4)ccc3F)c2[nH]c1=O` [Example 112, 4-Amino-8-[2-fluoro-5-[(6-methyl-3-pyridyl)oxymethyl]phenyl]-2-oxo-N-propyl-1H-quinoline-3-carboxamide], the “α2-GABAAR Relative Efficacy” value in the assay with human α2β3γ2 GABAARs is given as 0.11. Further, the Ki in assay [1] amounted to 0.57 nM.
The like results for `CCCNC(=O)c1c(N)c2cccc(-c3cc(OCc4noc(C)n4)ccc3F)c2[nH]c1=O` [Example 130, 4-Amino-8-[2-fluoro-5-[(5-methyl-1,2,4-oxadiazol-3-yl)methoxy]phenyl]-2-oxo-N-propyl-1H-quinoline-3-carboxamide] were, in that order, 0.18 and 0.65 nM.
`CCCNC(=O)c1c(N)c2cccc(-c3c(C)noc3C)c2[nH]c1=O` [Example 54, 4-Amino-8-(3,5-dimethylisoxazol-4-yl)-2-oxo-N-propyl-1H-quinoline-3-carboxamide]: the “α2-GABAAR Relative Efficacy” value with human α2β3γ2 GABAARs came to 0.07. In addition, the Ki in assay [1] amounted to 20 nM.
As for `CCCNC(=O)c1c(N)c2cccc(-c3cccnc3OC)c2n(C)c1=O` [Example 76, 4-Amino-8-(2-methoxy-3-pyridyl)-1-methyl-2-oxo-N-propyl-quinoline-3-carboxamide], the “α2-GABAAR Relative Efficacy” value in the assay with human α2β3γ2 GABAARs worked out at 0.42. For the same molecule, in assay [1], the Ki came out at 6.23 nM.
Turning to `Cc1nn(C)cc1-c1cccc2c(N)c(C(=O)NCCC(F)(F)F)c(=O)[nH]c12` [Example 73, 4-Amino-8-(1,3-dimethylpyrazol-4-yl)-2-oxo-N-(3,3,3-trifluoropropyl)-1H-quinoline-3-carboxamide], the “α2-GABAAR Relative Efficacy” value in the assay on human α2β3γ2 GABAARs was 0.48. The Ki in assay [1] amounted to 3.08 nM.
For `CCCNC(=O)c1c(N)c2cccc(-c3cc(OCc4coc(C(C)C)n4)ccc3F)c2[nH]c1=O` [Example 123, 4-Amino-8-[2-fluoro-5-[(2-isopropyloxazol-4-yl)methoxy]phenyl]-2-oxo-N-propyl-1H-quinoline-3-carboxamide], in the assay with human α2β3γ2 GABAARs, the “α2-GABAAR Relative Efficacy” value was 0.2549. For the same molecule, the Ki in assay [1] was determined as 1.71 nM.
Take `CCCNC(=O)c1c(N)c2cccc(-c3cnccc3COC)c2[nH]c1=O` [Example 21, 4-Amino-8-(4-(methoxymethyl)pyridin-3-yl)-2-oxo-N-propyl-1,2-dihydroquinoline-3-carboxamide]: the “α2-GABAAR Relative Efficacy” value in the assay with human α2β3γ2 GABAARs came to 0.12. The Ki in assay [1] worked out at 29.8 nM.
For the molecule `CCCNC(=O)c1c(N)c2cccc(-c3cncc(F)c3)c2[nH]c1=O` [Example 22, 4-Amino-8-(5-fluoro-3-pyridyl)-2-oxo-N-propyl-1H-quinoline-3-carboxamide], the “α2-GABAAR Relative Efficacy” value with human α2β3γ2 GABAARs is listed as 0.19. Moreover, the Ki in assay [1] was determined as 13.6 nM.
Consider `CCCNC(=O)c1c(N)c2cccc(-c3cc(OCC4CCOCC4)ccc3F)c2[nH]c1=O` [Example 135, 4-Amino-8-[2-fluoro-5-(tetrahydropyran-4-ylmethoxy)phenyl]-2-oxo-N-propyl-1H-quinoline-3-carboxamide], for which the “α2-GABAAR Relative Efficacy” value with human α2β3γ2 GABAARs stood at 0.20. Moreover, the Ki in assay [1] turned out to be 0.7 nM.
Turning to `CCCNC(=O)c1c(N)c2cccc(-c3cccc(OCc4ccccn4)c3)c2[nH]c1=O` [Example 87, 4-Amino-2-oxo-N-propyl-8-[3-(2-pyridylmethoxy)phenyl]-1H-quinoline-3-carboxamide], the “α2-GABAAR Relative Efficacy” value in the assay on human α2β3γ2 GABAARs amounted to 0.24. Further, in assay [1], the Ki came to 1.78 nM.
For `CCCNC(=O)c1c(N)c2cccc(-c3cn(C)nc3C)c2n(CC)c1=O` [Example 83, 4-Amino-8-(1,3-dimethylpyrazol-4-yl)-1-ethyl-2-oxo-N-propyl-quinoline-3-carboxamide], the “α2-GABAAR Relative Efficacy” value with human α2β3γ2 GABAARs was found to be 0.40. For the same molecule, the Ki in assay [1] amounted to 15.7 nM.
The like results for `CCCNC(=O)c1c(N)c2cccc(-c3cc(OCc4cncn4C)ccc3F)c2[nH]c1=O` [Example 125, 4-Amino-8-(2-fluoro-5-((1-methyl-1H-imidazol-5-yl)methoxy)phenyl)-2-oxo-N-propyl-1,2-dihydroquinoline-3-carboxamide] were, in that order, 0.22 and 0.37 nM.
For the molecule `CCCNC(=O)c1c(N)c2cccc(-c3cncnc3OC)c2[nH]c1=O` [Example 44, 4-Amino-8-(4-methoxypyrimidin-5-yl)-2-oxo-N-propyl-1H-quinoline-3-carboxamide], in the assay with human α2β3γ2 GABAARs, the “α2-GABAAR Relative Efficacy” value is reported as 0.30. In addition, the Ki in assay [1] was 18.6 nM.
For the molecule `CCCNC(=O)c1c(N)c2cccc(-c3cncc(OCC)c3)c2[nH]c1=O` [Example 26, 4-Amino-8-(5-ethoxypyridin-3-yl)-2-oxo-N-propyl-1,2-dihydroquinoline-3-carboxamide], in the assay on human α2β3γ2 GABAARs, the “α2-GABAAR Relative Efficacy” value is 0.15. For the same molecule, in assay [1], the Ki was 5.58 nM.
The like results for `CCCNC(=O)c1c(N)c2cccc(-c3nc(OCC)ccc3F)c2[nH]c1=O` [Example 9, 4-Amino-8-(6-ethoxy-3-fluoropyridin-2-yl)-2-oxo-N-propyl-1,2-dihydroquinoline-3-carboxamide] were, in that order, 0.23 and 0.25 nM.
The like results for `CCCNC(=O)c1c(N)c2cccc(-c3cc(OCc4nc(C)cs4)ccc3F)c2[nH]c1=O` [Example 118, 4-Amino-8-[2-fluoro-5-[(4-methylthiazol-2-yl)methoxy]phenyl]-2-oxo-N-propyl-1H-quinoline-3-carboxamide] were, in that order, 0.29 and 0.5 nM.
The like results for `CCCNC(=O)c1c(N)c2cccc(-c3cc(OCc4cccc(C(F)(F)F)n4)ccc3F)c2[nH]c1=O` [Example 90, 4-Amino-8-[2-fluoro-5-[[6-(trifluoromethyl)-2-pyridyl]methoxy]phenyl]-2-oxo-N-propyl-1H-quinoline-3-carboxamide] were, in that order, 0.18 and 3 nM.
For `CCCNC(=O)c1c(N)c2cccc(-c3cc(OCc4cccnn4)ccc3F)c2[nH]c1=O` [Example 105, 4-Amino-8-[2-fluoro-5-(pyridazin-3-ylmethoxy)phenyl]-2-oxo-N-propyl-1H-quinoline-3-carboxamide], the “α2-GABAAR Relative Efficacy” value in the assay with human α2β3γ2 GABAARs worked out at 0.19. In assay [1], the Ki came out at 0.21 nM.
On to `CCCNC(=O)c1c(N)c2cccc(-c3cc(OCc4cn(C)nn4)ccc3F)c2[nH]c1=O` [Example 129, 4-Amino-8-[2-fluoro-5-[(1-methyltriazol-4-yl)methoxy]phenyl]-2-oxo-N-propyl-1H-quinoline-3-carboxamide], for which, in the assay with human α2β3γ2 GABAARs, the “α2-GABAAR Relative Efficacy” value came to 0.25. For the same molecule, the Ki in assay [1] is 0.65 nM.
Turning to `CCCNC(=O)c1c(N)c2cccc(-c3nc(OCCOC)ncc3F)c2[nH]c1=O` [Example 43, 4-Amino-8-(5-fluoro-2-(2-methoxyethoxy)pyrimidin-4-yl)-2-oxo-N-propyl-1,2-dihydroquinoline-3-carboxamide], the “α2-GABAAR Relative Efficacy” value in the assay on human α2β3γ2 GABAARs amounted to 0.14. Also, in assay [1], the inhibition constant Ki was determined as 1.47 nM.
As for `CCCNC(=O)c1c(N)c2cccc(-c3cc(OCCn4cnnc4)ccc3F)c2[nH]c1=O` [Example 134, 4-Amino-8-[2-fluoro-5-[2-(1,2,4-triazol-4-yl)ethoxy]phenyl]-2-oxo-N-propyl-1H-quinoline-3-carboxamide], the “α2-GABAAR Relative Efficacy” value in the assay on human α2β3γ2 GABAARs was 0.04. In assay [1], the Ki turned out to be 0.17 nM.
Consider `CCCNC(=O)c1c(N)c2cccc(-c3cc(OCc4cn(C)cn4)ccc3F)c2[nH]c1=O` [Example 126, hydrochloride], for which the “α2-GABAAR Relative Efficacy” value in the assay on human α2β3γ2 GABAARs is listed as 0.27. In addition, the Ki in assay [1] was 1.19 nM.
